This assay relates to immobility behavior. The experiment in a line: Mouse Forced Swim Test (mFST). The class given is in vivo, mice. As to conditions: 1 mg/Kg i.v. thirty minutes before swim session. As to the method: Forced Swim Test (FST) is an animal model used to assess antidepressant compounds in preclinical studies. The FST was performed similar to the method of Porsolt et al. with modifications (Porsolt R D, Bertin A, Jalfre M. Behavioral despair in mice: a primary screening test for antidepressants. Arch Int Pharmacodyn Thér 1977; 229:327-36).
In this experiment, mice are forced to swim in an inescapable cylinder filled with water. Under these conditions, mice will initially try to escape and eventually develop immobility behavior; this behavior is interpreted as a passive stress-coping strategy or depression-like behavior. Swim tanks were positioned inside a box made of plastic. […] The duration of immobility was evaluated during the total 6 min of the test and expressed as duration (sec) of immobility. […]
In order to avoid the risk of obtaining the false positive\negative effects in the FST caused by a possible influence of the tested drugs on the locomotor activity, spontaneous locomotor activity was measured using an animal activity meter Opto-Varimex-4 Auto-Track (Columbus Instruments, USA). […] Spontaneous locomotor activity was evaluated between the 2nd and the 6th min, which corresponds with the time interval analysed in the FST. […]
Drug levels were 215 nM in the plasma. The NR2B receptor occupancy was determined to be 68%.

In the case of `O=C1NCC(=O)N2CCC[C@@H]12` [cPG, cyclic Prolyl Glycine], the immobility time result is given as “statistically significant decrease”.

These data come from US12070458B2, “Therapeutic agent composition and method of use, for treatment of mild congnitive impairment, depression, and psychological disorders” (priority 2018, dated 2024).
